Measured values reported in ChEMBL document CHEMBL5370558, “Modifications of geldanamycin via CuAAC altering affinity to chaperone protein Hsp90 and cytotoxicity” (Eur J Med Chem, 2023).

Experiments:
SK-BR-3 = assay: Anticancer activity against human SK-BR-3 cells assessed as cell growth inhibition incubated for 72 hrs by SRB assay; assay type: functional, cell-based; conditions: Homo sapiens, SK-BR-3, 72 h
SK-OV-3 = assay: Anticancer activity against human SK-OV-3 cells assessed as cell growth inhibition incubated for 72 hrs by SRB assay; assay type: functional, cell-based; conditions: Homo sapiens, SK-OV-3, 72 h
PC-3 = assay: Anticancer activity against human PC-3 cells assessed as cell growth inhibition incubated for 72 hrs by SRB assay; assay type: functional, cell-based; conditions: Homo sapiens, PC-3, 72 h
[1] = Cytotoxicity against human HDF cells assessed as cell growth inhibition incubated for 72 hrs by SRB assay; assay type: toxicity, cell-based; conditions: HDF cells (normal human dermal fibroblasts, NHDF)
[2] = target: Heat shock protein HSP 90-alpha (Homo sapiens) (UniProt P07900)
Description: Binding affinity to recombinant human HSP90alpha assessed as change in entropy by isothermal titration calorimetry assay

[3] = Selectivity index, ratio of IC50 for cytotoxicity against human HDF cells to IC50 for anticancer activity against human SK-BR-3 cells; assay type: toxicity, cell-based; conditions: HDF cells versus SK-BR-3 cells, read-out: Ratio IC50
[4] = Selectivity index, ratio of IC50 for cytotoxicity against human HDF cells to IC50 for anticancer activity against human SK-OV-3 cells; assay type: cell-based; conditions: HDF cells versus SK-OV-3 cells, read-out: Ratio IC50
[5] = Selectivity index, ratio of IC50 for cytotoxicity against human HDF cells to IC50 for anticancer activity against human PC-3 cells; assay type: toxicity, cell-based; conditions: HDF cells versus PC-3 cells, read-out: Ratio IC50

## CO[C@H]1/C=C\C=C(/C)C(=O)NC2=CC(=O)C(NCc3cn(CCCOS(=O)(=O)c4ccc(C)cc4)nn3)=C(C[C@@H](C)C[C@H](OC)[C@H](O)[C@@H](C)/C=C(\C)[C@@H]1OC(N)=O)C2=O
SK-BR-3
  IC50: 0.44 µM
SK-OV-3
  IC50: 0.45 µM
PC-3
  IC50: 0.46 µM
[1]
  IC50 at 72 h: 0.44 µM
[2]
  TdeltaS: 1.41 kcal/mol

## CO[C@H]1/C=C\C=C(/C)C(=O)NC2=CC(=O)C(NCc3cn(Cc4ccc(Cl)cc4)nn3)=C(C[C@@H](C)C[C@H](OC)[C@H](O)[C@@H](C)/C=C(\C)[C@@H]1OC(N)=O)C2=O
SK-BR-3
  IC50: 0.24 µM
SK-OV-3
  IC50: 0.23 µM
PC-3
  IC50: 0.23 µM
[1]
  IC50 at 72 h: 0.44 µM
[2]
  TdeltaS: -0.86 kcal/mol

## CO[C@H]1/C=C\C=C(/C)C(=O)NC2=CC(=O)C(NCc3cn(C/C=C/c4ccccc4)nn3)=C(C[C@@H](C)C[C@H](OC)[C@H](O)[C@@H](C)/C=C(\C)[C@@H]1OC(N)=O)C2=O
SK-BR-3
  IC50: 1.16 µM
SK-OV-3
  IC50: 1.08 µM
PC-3
  IC50: 1.11 µM
[1]
  IC50 at 72 h: 3.38 µM
[2]
  TdeltaS: -0.884 kcal/mol

## CO[C@H]1/C=C\C=C(/C)C(=O)NC2=CC(=O)C(NCc3cn(Cc4ccc([N+](=O)[O-])cc4)nn3)=C(C[C@@H](C)C[C@H](OC)[C@H](O)[C@@H](C)/C=C(\C)[C@@H]1OC(N)=O)C2=O
SK-BR-3
  IC50: 0.74 µM
SK-OV-3
  IC50: 0.74 µM
PC-3
  IC50: 0.69 µM
[1]
  IC50 at 72 h: 0.78 µM
[3]
  selectivity ratio: 1.05
[4]
  selectivity ratio: 1.05
[5]
  selectivity ratio: 1.28

## CO[C@H]1/C=C\C=C(/C)C(=O)NC2=CC(=O)C(NCc3cn(C4CCCCCC4)nn3)=C(C[C@@H](C)C[C@H](OC)[C@H](O)[C@@H](C)/C=C(\C)[C@@H]1OC(N)=O)C2=O
SK-BR-3
  IC50: 1.03 µM
SK-OV-3
  IC50: 1.12 µM
PC-3
  IC50: 1.05 µM
[1]
  IC50 at 72 h: 1.7 µM
[3]
  selectivity ratio: 1.65
[4]
  selectivity ratio: 1.52
[5]
  selectivity ratio: 1.62

## CO[C@H]1/C=C\C=C(/C)C(=O)NC2=CC(=O)C(NCc3cn([C@@H]4O[C@H](CO)[C@@H](O)[C@H](O)[C@H]4O)nn3)=C(C[C@@H](C)C[C@H](OC)[C@H](O)[C@@H](C)/C=C(\C)[C@@H]1OC(N)=O)C2=O
SK-BR-3
  IC50: 0.74 µM
SK-OV-3
  IC50: 0.54 µM
PC-3
  IC50: 0.6 µM
[1]
  IC50 at 72 h: 1.01 µM
[3]
  selectivity ratio: 1.36
[4]
  selectivity ratio: 1.87
[5]
  selectivity ratio: 1.68

## CO[C@H]1/C=C\C=C(/C)C(=O)NC2=CC(=O)C(NCc3cn([C@@H]4O[C@H](CO)[C@H](O)[C@H](O)[C@H]4O)nn3)=C(C[C@@H](C)C[C@H](OC)[C@H](O)[C@@H](C)/C=C(\C)[C@@H]1OC(N)=O)C2=O
SK-BR-3
  IC50: 0.57 µM
SK-OV-3
  IC50: 0.53 µM
PC-3
  IC50: 0.54 µM
[1]
  IC50 at 72 h: 0.99 µM
[3]
  selectivity ratio: 1.74
[4]
  selectivity ratio: 1.87
[5]
  selectivity ratio: 1.83

## CO[C@H]1/C=C\C=C(/C)C(=O)NC2=CC(=O)C(NCc3cn(Cc4ccc(Br)cc4)nn3)=C(C[C@@H](C)C[C@H](OC)[C@H](O)[C@@H](C)/C=C(\C)[C@@H]1OC(N)=O)C2=O
SK-BR-3
  IC50: 0.37 µM
SK-OV-3
  IC50: 0.27 µM
PC-3
  IC50: 0.31 µM
[1]
  IC50 at 72 h: 0.65 µM
[3]
  selectivity ratio: 1.76
[4]
  selectivity ratio: 2.41
[5]
  selectivity ratio: 2.1

## C#CCNC1=C2C[C@@H](C)C[C@H](OC)[C@H](O)[C@@H](C)/C=C(\C)[C@H](OC(N)=O)[C@@H](OC)/C=C\C=C(/C)C(=O)NC(=CC1=O)C2=O
SK-BR-3
  IC50: 4.01 µM
SK-OV-3
  IC50: 4.23 µM
PC-3
  IC50: 4.09 µM
[1]
  IC50 at 72 h: 7.36 µM
[3]
  selectivity ratio: 1.84
[4]
  selectivity ratio: 1.74
[5]
  selectivity ratio: 1.8

## CO[C@H]1/C=C\C=C(/C)C(=O)NC2=CC(=O)C(NCCn3cc(-c4ccccn4)nn3)=C(C[C@@H](C)C[C@H](OC)[C@H](O)[C@@H](C)/C=C(\C)[C@@H]1OC(N)=O)C2=O
SK-BR-3
  IC50: 1.16 µM
SK-OV-3
  IC50: 1.3 µM
PC-3
  IC50: 1.21 µM
[1]
  IC50 at 72 h: 2.41 µM
[3]
  selectivity ratio: 2.08
[4]
  selectivity ratio: 1.85
[5]
  selectivity ratio: 1.99

## CO[C@H]1/C=C\C=C(/C)C(=O)NC2=CC(=O)C(NCc3c[nH]nn3)=C(C[C@@H](C)C[C@H](OC)[C@H](O)[C@@H](C)/C=C(\C)[C@@H]1OC(N)=O)C2=O
SK-BR-3
  IC50: 0.73 µM
SK-OV-3
  IC50: 0.69 µM
PC-3
  IC50: 0.69 µM
[1]
  IC50 at 72 h: 1.77 µM
[3]
  selectivity ratio: 2.42
[4]
  selectivity ratio: 2.57
[5]
  selectivity ratio: 2.57

## CO[C@H]1/C=C\C=C(/C)C(=O)NC2=CC(=O)C(NCCn3cc(-c4ccsc4)nn3)=C(C[C@@H](C)C[C@H](OC)[C@H](O)[C@@H](C)/C=C(\C)[C@@H]1OC(N)=O)C2=O
SK-BR-3
  IC50: 0.93 µM
SK-OV-3
  IC50: 0.94 µM
PC-3
  IC50: 0.99 µM
[1]
  IC50 at 72 h: 2.07 µM
[3]
  selectivity ratio: 2.23
[4]
  selectivity ratio: 2.2
[5]
  selectivity ratio: 2.09

## CO[C@H]1/C=C\C=C(/C)C(=O)NC2=CC(=O)C(NCc3cn(Cc4ccc([N+](=O)[O-])o4)nn3)=C(C[C@@H](C)C[C@H](OC)[C@H](O)[C@@H](C)/C=C(\C)[C@@H]1OC(N)=O)C2=O
SK-BR-3
  IC50: 2.12 µM
SK-OV-3
  IC50: 2.09 µM
PC-3
  IC50: 2.15 µM
[1]
  IC50 at 72 h: 3.82 µM
[3]
  selectivity ratio: 1.8
[4]
  selectivity ratio: 1.83
[5]
  selectivity ratio: 1.78

## CO[C@H]1/C=C\C=C(/C)C(=O)NC2=CC(=O)C(NCc3cn(Cc4cccc(C#N)c4)nn3)=C(C[C@@H](C)C[C@H](OC)[C@H](O)[C@@H](C)/C=C(\C)[C@@H]1OC(N)=O)C2=O
SK-BR-3
  IC50: 4.51 µM
SK-OV-3
  IC50: 4.6 µM
PC-3
  IC50: 4.51 µM
[1]
  IC50 at 72 h: 7.44 µM
[3]
  selectivity ratio: 1.65
[4]
  selectivity ratio: 1.62
[5]
  selectivity ratio: 1.65

## CO[C@H]1/C=C\C=C(/C)C(=O)NC2=CC(=O)C(NCc3cn(CC4CCOCC4)nn3)=C(C[C@@H](C)C[C@H](OC)[C@H](O)[C@@H](C)/C=C(\C)[C@@H]1OC(N)=O)C2=O
SK-BR-3
  IC50: 0.96 µM
SK-OV-3
  IC50: 0.92 µM
PC-3
  IC50: 0.97 µM
[1]
  IC50 at 72 h: 1.84 µM
[3]
  selectivity ratio: 1.92
[4]
  selectivity ratio: 2
[5]
  selectivity ratio: 1.9

## CO[C@H]1/C=C\C=C(/C)C(=O)NC2=CC(=O)C(NCc3cn(Cc4ccc(C)cc4)nn3)=C(C[C@@H](C)C[C@H](OC)[C@H](O)[C@@H](C)/C=C(\C)[C@@H]1OC(N)=O)C2=O
SK-BR-3
  IC50: 0.99 µM
SK-OV-3
  IC50: 0.82 µM
PC-3
  IC50: 0.85 µM
[1]
  IC50 at 72 h: 1.17 µM
[3]
  selectivity ratio: 1.18
[4]
  selectivity ratio: 1.43
[5]
  selectivity ratio: 1.38
